According to PubChem BioAssay (NCI):
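GI50 marks 50% less growth. TGI marks complete inhibition of growth.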

How the values were obtained:
Test in all cases: growth of human tumour cells (NCI), 384-well format
[1] = system: DU-145 prostate
[2] = system: SK-MEL-28 melanoma
[3] = system: HL-60(TB) leukemia
[4] = system: NCI-H522 lung
[5] = system: HCC-2998 colon
[6] = system: OVCAR-8 ovarian
[7] = system: HCT-116 colon
[8] = system: NCI-H226 lung
[9] = system: COLO 205 colon
[10] = system: HS 578T breast
[11] = system: MALME-3M melanoma
[12] = system: SF-539 CNS
[13] = system: SK-MEL-2 melanoma
[14] = system: NCI-H460 NSCLC
[15] = system: MDA-MB-231 breast
[16] = system: SN12C renal
[17] = system: SF-295 CNS
[18] = system: ACHN renal
[19] = system: U251 glioblastoma
[20] = system: KM12 colon
[21] = system: OVCAR-4 ovarian
[22] = system: OVCAR-3 ovarian
[23] = system: TK-10 renal
[24] = system: K-562 leukemia
[25] = system: SNB-75 CNS
[26] = system: UACC-62 melanoma
[27] = system: HOP-92 NSCLC
[28] = system: 786-0 renal
[29] = system: SW-620 colon
[30] = system: NCI-H322M lung
[31] = system: CCRF-CEM leukemia
[32] = system: M14 melanoma
[33] = system: MDA-MB-435 melanoma
[34] = system: CAKI-1 renal
[35] = system: MDA-MB-468 breast
[36] = system: SF-268 CNS
[37] = system: MCF7 breast
[38] = system: NCI-H23 lung
[39] = system: RPMI-8226 leukemia
[40] = system: A549 NSCLC
[41] = system: OVCAR-5 ovarian
[42] = system: MOLT-4 leukemia
[43] = system: T-47D breast
[44] = system: SNB-19 CNS
[45] = system: UO-31 renal
[46] = system: SK-OV-3 ovarian
[47] = system: SR leukemia

With CNC(=O)c1cc(Oc2ccc(NC(=O)Nc3ccc(Cl)c(C(F)(F)F)c3)cc2)ccn1 the GI50 [1] was 2.69 µM, the TGI [1] was 6.57 µM and the GI50 [2] was 2.15 µM. It also gave a TGI [2] of 4.34 µM, a GI50 [3] of 0.892 µM and a TGI [3] of 2.04 µM. The GI50 [4] was 2.04 µM, the TGI [4] was 4.71 µM and the GI50 [5] was 2.13 µM. The TGI [5] was 3.86 µM, the GI50 [6] was 2.09 µM and the TGI [6] was 4.24 µM. For the same compound, the GI50 [7] was 1.65 µM, the TGI [7] was 4.14 µM and the GI50 [8] was 1.46 µM. The TGI [8] was 3.28 µM, the GI50 [9] was 2.19 µM and the TGI [9] was 4.66 µM. It also gave a GI50 [10] of 1.78 µM, a TGI [10] of 3.69 µM and a GI50 [11] of 2.01 µM. It also gave a TGI [11] of 4.12 µM, a GI50 [12] of 1.69 µM and a TGI [12] of 3.54 µM. For the same compound, the GI50 [13] was 2.05 µM, the TGI [13] was 3.49 µM and the GI50 [14] was 2.1 µM. The TGI [14] was 4.25 µM, the GI50 [15] was 1.82 µM and the TGI [15] was 3.47 µM. For the same compound, the GI50 [16] was 2.47 µM, the TGI [16] was 5.66 µM and the GI50 [17] was 2.07 µM. The TGI [17] was 4.2 µM, the GI50 [18] was 2.71 µM and the TGI [18] was 6.37 µM. For the same compound, the GI50 [19] was 2 µM, the TGI [19] was 3.74 µM and the GI50 [20] was 0.413 µM. The TGI [20] was 2.32 µM, the GI50 [21] was 3.59 µM and the TGI [21] was 6.84 µM. For the same compound, the GI50 [22] was 2.28 µM, the TGI [22] was 4.38 µM and the GI50 [23] was 5.09 µM. For the same compound, the TGI [23] was 17.7 µM, the GI50 [24] was 1.26 µM and the TGI [24] was 2.55 µM. It also gave a GI50 [25] of 3.21 µM, a TGI [25] of 5.92 µM and a GI50 [26] of 2.08 µM. For the same compound, the TGI [26] was 4.06 µM, the GI50 [27] was 3 µM and the TGI [27] was 7.6 µM. For the same compound, the GI50 [28] was 1.89 µM, the TGI [28] was 3.7 µM and the GI50 [29] was 2.17 µM. It also gave a TGI [29] of 4.54 µM, a GI50 [30] of 2.61 µM and a TGI [30] of 5.16 µM. For the same compound, the GI50 [31] was 1.59 µM, the TGI [31] was 2.95 µM and the GI50 [32] was 2.48 µM. For the same compound, the TGI [32] was 5.22 µM, the GI50 [33] was 2.57 µM and the TGI [33] was 4.98 µM. For the same compound, the GI50 [34] was 2.19 µM, the TGI [34] was 4.74 µM and the GI50 [35] was 1.5 µM. The TGI [35] was 3.35 µM, the GI50 [36] was 2.22 µM and the TGI [36] was 4.71 µM. For the same compound, the GI50 [37] was 2.14 µM, the TGI [37] was 5 µM and the GI50 [38] was 1.56 µM. The TGI [38] was 3.65 µM, the GI50 [39] was 1.48 µM and the TGI [39] was 2.82 µM. For the same compound, the GI50 [40] was 2.95 µM, the TGI [40] was 8.89 µM and the GI50 [41] was 2.69 µM. For the same compound, the TGI [41] was 6.59 µM, the GI50 [42] was 1.66 µM and the TGI [42] was 3.06 µM. The GI50 [43] was 1.94 µM, the TGI [43] was 5.95 µM and the GI50 [44] was 3.33 µM. It also gave a TGI [44] of 8.1 µM, a GI50 [45] of 0.748 µM and a TGI [45] of 1.44 µM. It also gave a GI50 [46] of 3.93 µM, a TGI [46] of 10.4 µM and a GI50 [47] of 2.1 µM. The TGI [47] was 3.55 µM.
